Source: patent publication US4373106A, “Sulfamoyl-substituted phenethylamine derivatives and process of producing them” (Yamanouchi Pharmaceutical Co., Ltd., priority 1980, dated 1983)
Like-named read-outs stand apart in the source and are kept apart here.

How the values were obtained:
α- and β-adrenergic = settings: as disclosed in British Pat. No. 2,006,772; cited from earlier work
α-adrenergic = assay: α-Adrenergic blocking action: antagonism of the hypertensive response to phenylephrine in anesthetized, pentolinium-treated rats; type: in vivo; settings: Rattus norvegicus, iv, read-out: α-adrenergic blocking ED50
Experimental: A. α-Adrenergic blocking action:
The blood pressure was measured in the rats anesthetized with urethane and treated with pentolinium.

[1] = test system: spontaneously hypertensive rats; assay: Antihypertensive effects in spontaneously hypertensive rats, oral, tail cuff method; type: in vivo; settings: systolic blood pressure higher than 150 mmHg
Experimental: Oral administration: The systolic blood pressure was measured indirectly from the tail cuff method using a programmed electrosphygmanometer (Narco Bio-Systems Inc., PE-300) on spontaneously hypertensive rats having a systolic blood pressure higher than 150 mmHg, the results being shown in Table II.

[2] = rats anesthetized with urethane, treated with pentolinium, phenylephrine 10 μg/Kg i.v.

| Structure (SMILES) | ED50 (α-adrenergic; [2]) [µg/kg] | Change in systolic blood pressure at stated dose p.o. ([1]; 10 mg/Kg p.o.) | ED50 (α-adrenergic) [µg/kg] | other results |
| --- | --- | --- | --- | --- |
| COc1ccccc1OCCNCC(O)c1ccc(C)c(S(N)(=O)=O)c1 (centres unmarked) [Compound A, 5-{1-hydroxy-2-[2-(2-methoxyphenoxy)ethylamino]ethyl}-2-methylbenzenesulfonamide, reference compound] | 34 | -35 ± 6.4 mmHg | – | α- and β-adrenergic blocking actions (α- and β-adrenergic): strong α- and β-adrenergic blocking actions |
| CNS(=O)(=O)c1cc(CC(C)NCCOc2ccccc2OC)ccc1OC.Cl (centres unmarked) [Example 4, 2-methoxy-5-{2-[2-(2-methoxyphenoxy)ethylamino]-2-methylethyl}-N-methylbenzenesulfonamide hydrochloride] | – | – | 0.35 | – |
| COc1ccccc1OCCNC(C)Cc1ccc(OC)c(S(=O)(=O)N(C)C)c1.Cl (centres unmarked) [Example 5, 2-Methoxy-5-{2-[2-(2-methoxyphenoxy)ethylamino]-2-methylethyl}-N,N-dimethylbenzenesulfonamide hydrochloride] | – | – | 0.26 | – |
| COc1ccccc1OCCNCCc1ccc(OC)c(S(N)(=O)=O)c1.Cl [Example 10, 2-methoxy-5-{2-[2-(2-methoxyphenoxy)ethylamino]ethyl}benzenesulfonamide hydrochloride] | 5.9 | -57 ± 5.6 mmHg | – | – |
| COc1ccccc1OCCNCCc1ccc(C)c(S(N)(=O)=O)c1.Cl [Example 11, 5-{2-[2-(2-Methoxyphenoxy)ethylamino]ethyl}-2-methylbenzenesulfonamide hydrochloride] | 12 | – | – | Change in systolic blood pressure at stated dose p.o. ([1]; 30 mg/Kg p.o.): -50 ± 4.7 mmHg |
| CCOc1ccccc1OCCNCCc1ccc(C)c(S(N)(=O)=O)c1.Cl [Example 12, 5-{2-[2-(2-Ethoxyphenoxy)ethylamino]ethyl}-2-methylbenzenesulfonamide hydrochloride] | 7.3 | -48 ± 2.0 mmHg | – | – |
| COc1ccccc1OCCNCCc1ccc(O)c(S(N)(=O)=O)c1 [Example 15, 2-Hydroxy-5-{2-[2-(2-methoxyphenoxy)ethylamino]ethyl}benzenesulfonamide] | 1.3 | -54 ± 6.2 mmHg | – | – |
| COc1ccccc1OCCNC(C)Cc1ccc(OC)c(S(N)(=O)=O)c1.Cl (centres unmarked) [Example 16, 2-Methoxy-5-{2-[2-(2-methoxyphenoxy)ethylamino]-2-methylethyl}benzenesulfonamide hydrochloride] | – | -71 ± 11.1 mmHg | 0.8 | – |
| CCOc1ccccc1OCCNC(C)Cc1ccc(OC)c(S(N)(=O)=O)c1.Cl (centres unmarked) [Example 20, 5-{2-[2-(2-Ethoxyphenoxy)ethylamino]-2-methylethyl}-2-methoxybenzenesulfonamide hydrochloride] | – | – | – | Change in systolic blood pressure at stated dose p.o. ([1]; 3 mg/Kg p.o.): -57 ± 4.2 mmHg |
| COc1ccccc1OCCNC(C)Cc1ccc(C)c(S(N)(=O)=O)c1.Cl (centres unmarked) [Example 25, 5-{2-[2-(2-Methoxyphenoxy)ethylamino]-2-methylethyl}-2-methylbenzenesulfonamide hydrochloride] | – | -46 ± 3.6 mmHg | 1.2 | – |
| CCC(Cc1ccc(C)c(S(N)(=O)=O)c1)NCCOc1ccccc1OC.Cl (centres unmarked) [Example 26, 5-{2-[2-(2-Methoxyphenoxy)ethylamino]-2-ethylethyl}-2-methylbenzenesulfonamide hydrochloride] | 4 | -46 ± 4.3 mmHg | – | – |
| Cc1ccc(N(CC2=NCCN2)c2cccc(O)c2)cc1 [Phentolamine, phentolamine, reference compound] | 61 | +7.8 ± 5.0 mmHg | – | Change in systolic blood pressure at stated dose p.o. ([1]; 100 mg/Kg p.o.): -70 ± 10.1 mmHg |
